Data taken from ChEMBL document CHEMBL2057094, “Inhibition of VEGF transcription through blockade of the hypoxia inducible factor-1α-p300 interaction by a small molecule” (Bioorg Med Chem Lett, 2012).
Activity calls are given as the source filed them. The calls are words filed in the database; no cut-off is given here.

Assays:
[1] = target: T1, Histone acetyltransferase p300/Hypoxia-inducible factor 1-alpha (Homo sapiens, UniProt Q09472+Q16665); assay: Inhibition of human C-terminal activation domain of HIF-1alpha/CH1 domain of GST-p300 interaction using F-786-826 at 200 uM by fluorescence polarization based assay; assay type: protein-complex assay
Target sequence in this assay (Q09472 2-2414 limits assumed): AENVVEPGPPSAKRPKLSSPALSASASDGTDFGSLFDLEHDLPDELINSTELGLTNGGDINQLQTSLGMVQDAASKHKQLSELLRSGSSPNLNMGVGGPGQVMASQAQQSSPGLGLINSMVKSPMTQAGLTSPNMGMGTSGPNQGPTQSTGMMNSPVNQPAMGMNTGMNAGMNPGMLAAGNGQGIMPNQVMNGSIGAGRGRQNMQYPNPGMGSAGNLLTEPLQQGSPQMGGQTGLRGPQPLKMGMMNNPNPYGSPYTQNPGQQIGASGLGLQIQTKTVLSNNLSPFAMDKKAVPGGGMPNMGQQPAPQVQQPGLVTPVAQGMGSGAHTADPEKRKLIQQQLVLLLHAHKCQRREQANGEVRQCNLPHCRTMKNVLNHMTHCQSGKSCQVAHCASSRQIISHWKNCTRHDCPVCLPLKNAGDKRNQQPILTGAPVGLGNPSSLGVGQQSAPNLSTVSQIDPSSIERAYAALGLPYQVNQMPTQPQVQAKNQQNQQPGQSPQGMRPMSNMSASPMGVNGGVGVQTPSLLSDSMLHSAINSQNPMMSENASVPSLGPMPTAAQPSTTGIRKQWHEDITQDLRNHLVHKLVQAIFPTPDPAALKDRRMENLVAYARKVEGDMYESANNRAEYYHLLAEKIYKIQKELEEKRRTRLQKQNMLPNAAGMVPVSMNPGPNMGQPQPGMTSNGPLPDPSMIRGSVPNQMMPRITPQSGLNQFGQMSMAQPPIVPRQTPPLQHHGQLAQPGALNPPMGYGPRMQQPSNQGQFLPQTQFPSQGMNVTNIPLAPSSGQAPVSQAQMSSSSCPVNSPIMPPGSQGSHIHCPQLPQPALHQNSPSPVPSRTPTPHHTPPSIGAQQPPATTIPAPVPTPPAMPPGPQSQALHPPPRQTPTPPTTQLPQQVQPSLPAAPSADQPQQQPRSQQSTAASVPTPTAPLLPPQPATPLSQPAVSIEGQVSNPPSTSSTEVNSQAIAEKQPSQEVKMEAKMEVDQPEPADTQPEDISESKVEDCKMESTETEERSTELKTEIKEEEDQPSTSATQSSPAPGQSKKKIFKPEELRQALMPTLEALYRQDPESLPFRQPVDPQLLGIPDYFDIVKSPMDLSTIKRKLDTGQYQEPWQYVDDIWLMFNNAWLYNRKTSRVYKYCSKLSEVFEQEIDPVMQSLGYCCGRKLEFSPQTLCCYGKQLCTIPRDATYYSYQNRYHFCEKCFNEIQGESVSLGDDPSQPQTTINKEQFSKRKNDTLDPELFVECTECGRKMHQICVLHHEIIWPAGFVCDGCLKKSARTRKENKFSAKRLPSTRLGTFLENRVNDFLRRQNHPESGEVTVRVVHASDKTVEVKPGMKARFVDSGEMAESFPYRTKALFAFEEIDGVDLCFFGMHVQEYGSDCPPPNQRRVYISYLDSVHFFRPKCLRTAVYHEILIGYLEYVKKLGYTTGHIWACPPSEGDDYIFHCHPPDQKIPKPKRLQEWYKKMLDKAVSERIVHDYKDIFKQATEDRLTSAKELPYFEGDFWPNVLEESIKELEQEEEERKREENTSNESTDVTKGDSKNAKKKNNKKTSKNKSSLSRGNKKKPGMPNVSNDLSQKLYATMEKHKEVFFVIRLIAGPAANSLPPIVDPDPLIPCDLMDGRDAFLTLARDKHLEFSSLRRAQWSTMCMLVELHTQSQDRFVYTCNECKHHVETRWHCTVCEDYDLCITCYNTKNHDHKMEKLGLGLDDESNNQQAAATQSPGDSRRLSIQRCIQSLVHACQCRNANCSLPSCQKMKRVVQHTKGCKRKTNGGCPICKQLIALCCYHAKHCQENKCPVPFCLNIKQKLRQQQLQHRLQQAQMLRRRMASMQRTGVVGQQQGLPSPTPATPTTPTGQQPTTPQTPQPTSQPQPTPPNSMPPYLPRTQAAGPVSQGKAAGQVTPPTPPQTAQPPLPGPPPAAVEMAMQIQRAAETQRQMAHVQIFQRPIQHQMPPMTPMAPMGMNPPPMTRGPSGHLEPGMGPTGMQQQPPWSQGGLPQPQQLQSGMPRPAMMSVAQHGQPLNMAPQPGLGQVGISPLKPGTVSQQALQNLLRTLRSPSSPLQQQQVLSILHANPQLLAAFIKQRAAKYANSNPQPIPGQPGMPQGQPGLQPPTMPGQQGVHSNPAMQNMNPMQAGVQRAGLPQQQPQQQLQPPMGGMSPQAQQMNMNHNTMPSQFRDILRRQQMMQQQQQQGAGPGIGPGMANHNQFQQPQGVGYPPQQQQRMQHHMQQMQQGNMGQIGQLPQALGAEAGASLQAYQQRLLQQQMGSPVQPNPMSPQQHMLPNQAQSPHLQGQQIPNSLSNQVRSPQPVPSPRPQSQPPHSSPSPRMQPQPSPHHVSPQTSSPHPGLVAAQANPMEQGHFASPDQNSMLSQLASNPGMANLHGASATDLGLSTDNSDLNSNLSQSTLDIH
Target sequence in this assay (Q16665 whole entry partner, the tested form may be a part): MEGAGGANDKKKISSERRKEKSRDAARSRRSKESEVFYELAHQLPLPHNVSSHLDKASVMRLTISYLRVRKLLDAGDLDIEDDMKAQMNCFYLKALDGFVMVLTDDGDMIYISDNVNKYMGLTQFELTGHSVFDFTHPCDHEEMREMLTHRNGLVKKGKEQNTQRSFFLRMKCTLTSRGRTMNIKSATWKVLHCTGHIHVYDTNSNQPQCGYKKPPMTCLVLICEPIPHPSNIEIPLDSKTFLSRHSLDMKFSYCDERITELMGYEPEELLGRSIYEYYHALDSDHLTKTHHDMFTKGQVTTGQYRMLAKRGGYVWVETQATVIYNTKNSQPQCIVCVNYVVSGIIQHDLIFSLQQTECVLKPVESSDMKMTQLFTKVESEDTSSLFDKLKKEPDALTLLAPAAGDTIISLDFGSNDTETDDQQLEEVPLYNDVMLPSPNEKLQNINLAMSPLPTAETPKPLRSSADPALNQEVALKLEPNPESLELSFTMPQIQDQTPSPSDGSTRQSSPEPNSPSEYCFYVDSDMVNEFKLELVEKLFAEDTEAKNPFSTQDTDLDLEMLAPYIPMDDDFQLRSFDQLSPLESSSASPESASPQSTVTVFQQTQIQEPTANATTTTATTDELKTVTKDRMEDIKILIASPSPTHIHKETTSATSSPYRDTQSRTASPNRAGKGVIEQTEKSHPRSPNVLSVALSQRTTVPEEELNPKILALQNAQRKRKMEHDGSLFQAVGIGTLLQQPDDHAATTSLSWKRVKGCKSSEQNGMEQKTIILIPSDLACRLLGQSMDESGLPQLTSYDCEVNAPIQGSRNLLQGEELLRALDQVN

[2] = target: T1, Histone acetyltransferase p300/Hypoxia-inducible factor 1-alpha; assay: Inhibition of human C-terminal activation domain of HIF-1alpha/CH1 domain of GST-p300 interaction using F-786-826 by fluorescence polarization based assay; assay type: protein-complex assay
[3] = target: T1, Histone acetyltransferase p300/Hypoxia-inducible factor 1-alpha; assay: Inhibition of deferoxamine-induced HIF-1alpha/resin-bound GST-p300 interaction human HeLa cells using coomasie blue staining by GST pull-down assay; assay type: cell-based
Target sequence in this assay (Q09472 2-2414 limits assumed): as the sequence (Q09472 2-2414 limits assumed) above
Target sequence in this assay (Q16665 whole entry partner, the tested form may be a part): as the sequence (Q16665 whole entry partner, the tested form may be a part) above

[4] = target: Hypoxia-inducible factor 1-alpha (Homo sapiens) (UniProt Q16665); assay: Inhibition of HIF-1alpha in deferoxamine treated human HeLa cells assessed as reduction of VEGF mRNA level at 100 uM after 5 hrs by RT-PCR analysis; assay type: cell-based
Sequence of Hypoxia-inducible factor 1-alpha (Homo sapiens) (Q16665 whole entry, looked up): as the sequence (Q16665 whole entry partner, the tested form may be a part) above

[5] = target: Hypoxia-inducible factor 1-alpha (Homo sapiens) (UniProt Q16665); assay: Effect on stabilization of HIF-1alpha in deferoxamine treated human HeLa cells at 50 to 500 uM by Western blot analysis; assay type: cell-based
[6] = system: HeLa; assay: Cytotoxicity against human deferoxamine treated HeLa cells assessed as decrease of cell viability after 48 hrs by MTT assay; assay type: functional, cell-based
[7] = system: HeLa; assay: Cytotoxicity against human deferoxamine treated HeLa cells assessed as decrease of cell viability after 24 hrs by MTT assay relative to control; assay type: functional

SMILES: CC(C)Cc1cc(CNC(=O)N2CCN(CC(=O)Nc3ccccc3Cl)CC2)nn1-c1ccccc1.Cl
- inhibition [1]: 80%
- IC50 [2]: 107 µM
- inhibition [3]: Active
- inhibition [4]: Active
- Activity [5]: inactive
- Activity [6]: Dose-dependent effect
- Activity [7]: 50%
